Consider 9 compounds from publication PMC9655428, “N-Hydroxy-N-Propargylamide Derivatives of Ferulic Acid: Inhibitors of Cholinesterases and Monoamine Oxidases” (Molecules, 2022).

“Also recorded” adds a separate entry of the source.

For series [1], the target named is T1, hAChE (Homo sapiens, UniProt P22303).
T1 construct: purchased Sigma Aldrich
Briefly: Inhibition of hAChE (Ellman spectrophotometric assay). Format: biochemical. To be noted: for hAChE % @ 10 µM: inhibition at 10 µM; for IC50: seven concentrations 30–0.01 µM. The procedure:
(§1) Inhibition assays were performed according to previously published protocols. […] Compound 3 is a hydroxamate in which the piperidine ring is attached to the C4 oxygen via an n-butyl linker, while compound 6 is a corresponding N-propargylhydroxamate.
(§2) Inhibition assays were performed according to previously published protocols. […] Briefly, the classical Ellman spectrophotometric assay (for ChEs) and fluorimetric detection of 4-hydroxyquinoline (for MAOs) were adapted to a plate reading procedure using 96-well microtiter plates (Greiner Bio-Frickenhausen, Frickenhausen, Germany). Readings were performed using the Infinite M1000 Pro plate reader (Tecan, Cernusco s.N., Cernusco sul Naviglio, MI, Italy), and statistical regression was performed using Prism software (GraphPad Prism version 5.00 for Windows, GraphPad Software, San Diego, CA, USA).
Background: In Ellman's method for cholinesterases, released thiocholine reacts with DTNB.

For series [2], the target named is T2, hMAO-B (Homo sapiens, UniProt P27338).
T2 construct: purchased Sigma Aldrich
T2 sequence (P27338 1-520): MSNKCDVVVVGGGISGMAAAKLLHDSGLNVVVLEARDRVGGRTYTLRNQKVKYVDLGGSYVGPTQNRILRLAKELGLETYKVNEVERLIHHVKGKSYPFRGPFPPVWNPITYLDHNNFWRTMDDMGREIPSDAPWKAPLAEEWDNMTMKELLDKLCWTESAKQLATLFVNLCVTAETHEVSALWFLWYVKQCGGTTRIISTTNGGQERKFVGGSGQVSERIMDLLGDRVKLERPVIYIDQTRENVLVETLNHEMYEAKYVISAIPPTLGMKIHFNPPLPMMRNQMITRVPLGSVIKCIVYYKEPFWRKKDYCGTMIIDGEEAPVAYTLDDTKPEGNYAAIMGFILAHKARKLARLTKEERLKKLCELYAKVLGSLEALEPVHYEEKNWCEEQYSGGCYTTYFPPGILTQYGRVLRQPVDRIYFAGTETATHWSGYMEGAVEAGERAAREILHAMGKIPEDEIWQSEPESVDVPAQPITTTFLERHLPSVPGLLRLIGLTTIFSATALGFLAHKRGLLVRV
Briefly: Inhibition of hMAO-B (fluorimetric detection of 4-hydroxyquinoline). Type of series: biochemical. To be noted: ni = no inhibition. The procedure:
as §1, §2

The target in series [3] is T3, hMAO-A (Homo sapiens, UniProt P21397).
T3 construct: purchased Sigma Aldrich
T3 sequence (P21397 1-527): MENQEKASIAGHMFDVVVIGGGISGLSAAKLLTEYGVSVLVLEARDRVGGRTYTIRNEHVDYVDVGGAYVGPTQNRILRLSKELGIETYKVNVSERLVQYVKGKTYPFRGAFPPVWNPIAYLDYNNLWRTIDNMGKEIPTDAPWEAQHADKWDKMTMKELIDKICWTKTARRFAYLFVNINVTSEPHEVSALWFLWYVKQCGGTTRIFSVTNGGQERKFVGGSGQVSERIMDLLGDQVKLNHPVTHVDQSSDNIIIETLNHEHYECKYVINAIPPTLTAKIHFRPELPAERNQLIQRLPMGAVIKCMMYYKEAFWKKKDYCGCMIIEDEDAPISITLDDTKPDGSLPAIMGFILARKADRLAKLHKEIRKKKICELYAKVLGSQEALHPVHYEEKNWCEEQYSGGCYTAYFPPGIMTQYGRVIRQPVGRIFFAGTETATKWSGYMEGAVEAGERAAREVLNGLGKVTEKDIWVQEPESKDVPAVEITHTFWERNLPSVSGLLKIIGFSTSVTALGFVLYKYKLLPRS
Briefly: Inhibition of hMAO-A (fluorimetric detection of 4-hydroxyquinoline). Type of series: biochemical. To be noted: ni = no inhibition. The procedure:
as §1, §2

Series [4] deals with T4, hBChE (Homo sapiens, UniProt P06276).
T4 construct: purchased Sigma Aldrich
T4 sequence (P06276 29-602): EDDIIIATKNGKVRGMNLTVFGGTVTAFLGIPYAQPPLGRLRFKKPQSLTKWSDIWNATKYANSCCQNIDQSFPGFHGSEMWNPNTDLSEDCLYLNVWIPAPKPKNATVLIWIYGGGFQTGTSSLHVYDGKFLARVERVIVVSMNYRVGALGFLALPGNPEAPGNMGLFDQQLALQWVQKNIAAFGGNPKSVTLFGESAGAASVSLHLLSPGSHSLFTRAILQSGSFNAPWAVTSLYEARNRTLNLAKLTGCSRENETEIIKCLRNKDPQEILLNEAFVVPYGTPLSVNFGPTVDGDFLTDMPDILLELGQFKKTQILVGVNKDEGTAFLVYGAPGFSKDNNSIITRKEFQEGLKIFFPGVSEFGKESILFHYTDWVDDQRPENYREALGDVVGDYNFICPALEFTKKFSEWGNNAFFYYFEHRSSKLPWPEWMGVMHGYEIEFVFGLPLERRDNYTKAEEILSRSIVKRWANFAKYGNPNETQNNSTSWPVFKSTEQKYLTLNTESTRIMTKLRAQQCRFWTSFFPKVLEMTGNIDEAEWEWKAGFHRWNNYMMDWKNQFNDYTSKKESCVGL
Briefly: Inhibition of hBChE (Ellman spectrophotometric assay). Format: biochemical. The conditions noted are these: ni = no inhibition; for hBChE % @ 10 µM: inhibition at 10 µM. The procedure: as §1, §2

Series [5] in a line: Metal chelation, UV-Vis absorption assay, Ca2+. Type of series: physicochemical. The conditions noted are these: 30 µM compound, equimolar CaCl2, 30 min, pH 7.4. The procedure:
(§3) Another therapeutic possibility currently under investigation is metal chelation, which could affect not only the redox cycling of metal ions but also Aβ- and tau-pathology. Metal chelation of compound 4 was investigated using a UV-Vis absorption assay, in which the compound was incubated with equimolar concentrations of the major bivalent biometals (i.e., Ca^2+, Mg^2+, Zn^2+, Cu^2+, Fe^2+, Mn^2+, Co^2+, and Ni^2+) (Figure 4).
(§4) Metal chelation was determined in assay buffer (20 mM Na-HEPES, 150 mM NaCl, pH 7.4) according to the procedure described previously. Stock solutions of the metals at 100 mM concentrations were prepared in MilliQ water (Milli-Q advantage A10 Ultrapure Water Purification System, Millipore, KGaA, Darmstadt, Germany). The FeCl2 stock solution (100 mM) was prepared in the presence of ascorbic acid (1 mM). Compound 4 at a concentration of 30 μM was incubated for 30 min with equimolar concentrations of CuCl2, ZnCl2, MgCl2, CaCl2, MnCl2, FeCl2, CoCl2, and NiCl2. Absorbance spectra were measured on a Synergy™ H4 reader (BioTek Instruments, Inc., Winooski, VT, USA).

The nature of series [6]: DPPH radical-scavenging assay. To be noted: DPPH 70 µM in MeOH, 1.5 h incubation. The text has this: In addition, antioxidants or natural products containing polyphenols are also being investigated in clinical trials involving AD patients. Therefore, the antioxidant properties of compound 4 were investigated using the 2,2-diphenyl-1-picrylhydrazyl radical (DPPH) scavenging assay, a simple and reliable in vitro assay. […] Hydroxamic acids are considered to be potent antioxidants, and, in combination with cholinesterase inhibitory activity, could not only alleviate symptoms but also have disease-modifying effects.
Compound 4 at concentrations of 3.125–50 µM was incubated for 1.5 h with 2,2-diphenyl-1-picrylhydrazyl radical (DPPH, 70 µM) in MeOH, and absorbance was measured (λ = 517 nm) using a Synergy™ H4 reader (BioTek Instruments, Inc., Winooski, VT, USA). The experiment was performed in three technical replicates, and the blank sample (compound 4 without DPPH) was subtracted. The results are expressed as the percentage of DPPH free radicals (DPPH free radicals (%) = ((A0 − A1)/A0) × 100, where A0 is the absorbance of DPPH in MeOH and A1 is the absorbance of DPPH in the presence of compound 4).
On the technique in general: DPPH is a stable violet radical that fades when it is reduced.

Series [7] can be described thus: Metal chelation, UV-Vis absorption assay, Cu2+. Type of series: physicochemical. To be noted: 30 µM compound, equimolar CuCl2, 30 min, pH 7.4. The protocol:
as §3, §4

Series [8] is described as follows: Metal chelation, UV-Vis absorption assay, Fe2+. The conditions noted are these: 30 µM compound, equimolar FeCl2, 30 min, pH 7.4. Format: physicochemical. The procedure:
as §3, §4

T1 sequence (P22303 32-614): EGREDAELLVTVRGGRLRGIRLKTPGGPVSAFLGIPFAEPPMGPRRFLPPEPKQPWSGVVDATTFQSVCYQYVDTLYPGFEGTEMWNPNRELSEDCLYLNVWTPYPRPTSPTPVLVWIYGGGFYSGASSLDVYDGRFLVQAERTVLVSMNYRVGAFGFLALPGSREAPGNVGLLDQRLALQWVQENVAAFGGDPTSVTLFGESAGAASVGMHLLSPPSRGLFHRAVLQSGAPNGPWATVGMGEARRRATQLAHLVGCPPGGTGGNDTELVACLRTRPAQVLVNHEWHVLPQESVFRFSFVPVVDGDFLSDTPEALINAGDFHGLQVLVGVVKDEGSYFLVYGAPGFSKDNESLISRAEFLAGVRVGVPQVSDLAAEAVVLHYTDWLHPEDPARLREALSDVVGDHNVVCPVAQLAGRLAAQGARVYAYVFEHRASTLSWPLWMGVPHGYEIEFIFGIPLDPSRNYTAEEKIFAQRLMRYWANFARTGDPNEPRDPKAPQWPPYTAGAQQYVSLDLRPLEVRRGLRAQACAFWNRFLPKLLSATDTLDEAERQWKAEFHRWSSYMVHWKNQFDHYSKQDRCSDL

As a reminder, the inhibition is how much of the control response was suppressed. A lower inhibition goes with little suppression. `COc1cc(/C=C/C(=O)NO)ccc1OCCN1CCCCC1` [Compound 1, (E)-N-Hydroxy-3-(3-methoxy-4-(2-(piperidin-1-yl)ethoxy)phenyl)acrylamide]: the “hAChE % @ 10 µM” value in series [1] is listed as 51 ± 2%. Besides, the inhibition at 10 µM in series [2] was found to be 26 ± 5%; in series [3], 20 ± 5%; in series [4], 18 ± 4%.

With `COc1cc(/C=C/C(=O)NO)ccc1OCCCN1CCCCC1` [Compound 2, (E)-N-Hydroxy-3-(3-methoxy-4-(3-(piperidin-1-yl)propoxy)phenyl)acrylamide], the “hAChE % @ 10 µM” value in series [1] is reported as 42 ± 2%. Moreover, the values for the inhibition at 10 µM in series [2] and in series [3] were 21 ± 4% and 15 ± 5%, respectively. Also, the “hBChE % @ 10 µM” value in series [4] is given as “ni”.

Usually IC50 stands for the concentration that gives 50% inhibition. A low value points to greater potency in that assay. For the compound `COc1cc(/C=C/C(=O)NO)ccc1OCCCCN1CCCCC1` [Compound 3, (E)-N-Hydroxy-3-(3-methoxy-4-(4-(piperidin-1-yl)butoxy)phenyl)acrylamide], 6.58 ± 0.27 µM corresponded to half-maximal inhibition in series [1] (IC50). Besides, the results for the inhibition at 10 µM in series [2] and in series [3] were 11 ± 4% and 5 ± 3%, respectively. The “hBChE % @ 10 µM” value in series [4] is given as “ni”.

For orientation: EC50 means the concentration giving half of the maximal effect. As for `C#CCN(O)C(=O)/C=C/c1ccc(OCCN2CCCCC2)c(OC)c1` [Compound 4, (E)-N-Hydroxy-3-(3-methoxy-4-(2-(piperidin-1-yl)ethoxy)phenyl)-N-(prop-2-yn-1-yl)acrylamide], the “Ca^2+ chelation (spectral change)” value in series [5] is recorded as “does not appear to be due to the formation of a Ca^2+/4 complex”. Moreover, the IC50 in series [1] worked out at 2.63 ± 0.57 µM. Besides, the EC50 in series [6] came out at 40.9 ± 0.5 µM. Besides, the inhibition at 10 µM came out at 20 ± 4% in series [2], 26 ± 5% in series [3] and 38 ± 2% in series [4]. For the same compound, the “Cu^2+ chelation (spectral change)” value in series [7] is listed as “efficiently bound Cu^2+ ions; also recorded: chelated divalent copper ions”. Moreover, the “Fe^2+ chelation (spectral change)” value in series [8] was “ferrous ions were also bound”.

For `C#CCN(O)C(=O)/C=C/c1ccc(OCCCN2CCCCC2)c(OC)c1` [Compound 5, (E)-N-Hydroxy-3-(3-methoxy-4-(3-(piperidin-1-yl)propoxy)phenyl)-N-(prop-2-yn-1-yl)acrylamide], the “hAChE % @ 10 µM” value in series [1] is recorded as 41 ± 4%. The inhibition at 10 µM in series [2] came to 16 ± 5%; in series [3], 23 ± 6%. In addition, the “hBChE % @ 10 µM” value in series [4] is reported as “ni”.

In series [1], `C#CCN(O)C(=O)/C=C/c1ccc(OCCCCN2CCCCC2)c(OC)c1` [Compound 6, (E)-N-Hydroxy-3-(3-methoxy-4-(4-(piperidin-1-yl)butoxy)phenyl)-N-(prop-2-yn-1-yl)acrylamide] had a concentration for half-maximal inhibition (IC50) of 7.2 ± 0.54 µM. The “hMAO-B % @ 10 µM” value in series [2] (inhibition at 10 µM) is “ni”. Further, the “hMAO-A % @ 10 µM” value in series [3] (inhibition at 10 µM) is “ni”. Further, the “hBChE % @ 10 µM” value in series [4] is listed as “ni”.

As for `O=C(NO)c1ccccc1` [Compound 15, N-Hydroxybenzamide], the “hAChE % @ 10 µM” value in series [1] came to 58 ± 5%. Also, the inhibition at 10 µM came out at 16 ± 3% in series [2] and 11 ± 3% in series [3]. Further, the “hBChE % @ 10 µM” value in series [4] is given as “ni”.

In the case of `C#CCN(O)C(=O)c1ccccc1` [Compound 16, N-Hydroxy-N-(prop-2-yn-1-yl)benzamide], the “hAChE % @ 10 µM” value in series [1] is given as 40 ± 4%. Moreover, the inhibition at 10 µM in series [2] came to 16 ± 5%; in series [3], 14 ± 4%. For the same compound, the “hBChE % @ 10 µM” value in series [4] is “ni”.

For the compound `Cc1c(C)c2c(c(C)c1O)CCC(C)(C(=O)O)O2` (stereo not shown) [Trolox, reference compound], the concentration for a half-maximal effect (EC50) in series [6] amounted to 12.4 ± 0.3 µM.
